# Source: PMC12186843, “Targeting GABAergic Hypofunction Associated with Schizophrenia: Identification of α1β2γ2GABA‑A Receptor Ligands with Neuroprotective and Antipsychotic Properties” (ACS Chemical Neuroscience, 2025)
# What was measured:
# GABA-A receptor = assay: Radioligand binding at the GABA-A receptor; parameters: species or system rat; settings: mean of two-three independent experiments; read-out: GABA-A Ki ± SEM
# Procedure: The study was conducted in accordance with previously established protocols, and performed in duplicate. Rat brains were homogenized and prepared following the described methodologies. The assay was carried out directly on 96-well microplates containing 50 mM Tris-HCl buffer (pH 7.4) in a total volume of 300 μL. […] To determine nonspecific binding, 100 μM GABA was included in the mixture. The 96-well microplates were incubated at 0 °C for 10 min, followed by rapid filtration through FilterMate B glass fiber filters (PerkinElmer, USA) using a Harvester-96 MACH III FM (Tomtec, USA). The filters were gently dried in a microwave and sealed in plastic bags (PerkinElmer, USA). Each filter was then immersed in 10 mL of Ultima Gold MV liquid scintillation cocktail (PerkinElmer, USA). […] Ki values were calculated using the Cheng and Prusoff equation, and statistical analyses were conducted using GraphPad Prism (version 4.0, San Diego, CA, USA)
# PAMPA permeability assay = assay type: in vitro ADME; settings: PBS pH 7.4, 100 μM, 5 h, zolpidem tested as tartrate
# Procedure: PAMPA. The precoated PAMPA Plate System Gentest, obtained from Corning (Tewksbury, MA, USA), was used for the permeability study. The system includes a 96-well receiver filter plate precoated with structured phospholipid layers and a matching donor microplate. Stock solutions of the test compounds and reference drugs were prepared in PBS buffer (pH 7.4) at a final concentration of 100 μM. Each compound solution (200 μL) was added to the donor wells and incubated at room temperature for 5 h. The quantity of molecules that penetrated from the donor wells to the acceptor wells through the phospholipid membrane was determined using UPLC-MS spectrometry (Waters ACQUITY TQD system with the TQ Detector, Waters, Milford, USA) with an internal standard. Permeability coefficients (Pe, cm/s) were calculated according to the formula provided by the manufacturer.
# SH-SY5Y cells [1] = assay: Intracellular calcium concentration after 6-OHDA (Fluo-4); assay type: cell-based, human; settings: 50 μM pretreatment 1 h, then 6-OHDA 250 μM 1 h
# Procedure: (§1) 7 (A). Effect of 6-Hydroxydopamine (6-OHDA) on intracellular calcium concentration [Ca^2+] determined by Fluo-4 AM. After pretreatment with tested compounds (50 μM) or vehicle (0.5% DMSO, v/v) for 1 h, the cells were incubated with 6-Hydroxydopamine (6-OHDA, 250 μM) for 1 h. 6-OHDA control: cells treated with 250 μM of 6-OHDA. […]. DMSO control: cells treated with 0.5% DMSO only. Data are presented as the mean ± SD from 2–3 independent experiments. Experiments were carried on with ImageXpress Micro XLS (Molecular Devices). (B) The level of ROS generation was determined by Cell ROX dye. After pretreatment with tested compounds (50 μM) or vehicle (0.5% DMSO, v/v) for 1 h, the cells were incubated with hydrogen peroxide (H2O2, 300 μM) for 1 h. H2O2 control: cells treated with H2O2 (300 μM). DMSO control: cells treated with 0.5% DMSO only. Data are presented as the mean ± SD from 2–3 independent experiments. Experiments were carried on with the ImageXpress Micro XLS (Molecular Devices).
# The SH-SY5Y human neuroblastoma cell line was maintained according to established protocols. The cells, obtained from the American Type Culture Collection (ATCC), were cultured in Dulbecco’s Modified Eagle’s Medium (DMEM, high glucose; Thermo Fisher), supplemented with 10% fetal bovine serum (Thermo Fisher), 100 IU/ml penicillin (Merck), and 100 μg/mL streptomycin (Merck). They were grown in 75 cm^2 flasks (Nunc) at 37 °C in a humidified atmosphere containing 5% CO2. For compound evaluation, SH-SY5Y cells were plated in 96-well plates (Falcon) at a density of 2 × 10^4 cells per well. The cells were allowed to adhere and grow for 24 h in an incubator set to 37 °C and 5% CO2 before starting the experiments. Stock solutions of both test and reference compounds were prepared at a concentration of 10^–2 M. A minimum of 1 mg of each compound was dissolved in dimethyl sulfoxide (DMSO). Serial dilutions were made in DMSO, then further diluted in PBS, mixed, and added to the cell culture medium.
# The intracellular Ca^2+ levels were assessed using a homogeneous cell-based assay with the Fluo-4 Direct Calcium Assay Kit (Thermo Fisher). Following incubation with the tested compounds, the supernatant was discarded, and the cells were incubated with 1 μM Fluo-4/AM in FluoroBrite DMEM (Thermo Fisher) for 1 h at 37 °C. The results were expressed as a percentage relative to the control (DMSO). Fluorescence intensity was recorded using the ImageXpress Micro XLS system (Molecular Devices).
# SH-SY5Y cells [2] = assay: ToxiLight assay (cell membrane damage); assay type: cell-based; settings: Table S1, 24 h
# Procedure: Damage to the cell membrane was assessed using the bioluminescent ToxiLight bioassay (Lonza), a profound method for detecting cell toxicity. Following 24 h of treatment, 5 μL of the supernatant above the sediment was transferred to a 384-well plate (PerkinElmer). Subsequently, 20 μL of Adenylate Kinase Detection Reagent (AKDR) was added to each well. Luminescence was recorded after a 10 min incubation period using a POLARstar Omega plate reader (BMG Labtech). Results are presented as a percentage relative to the control sample (cells lysed), reflecting the proportion of dead cells compared to the control.
# (§2) 1. Cytotoxicity studies for selected compounds
# Table S1. The viability of the cells SH-SY5Y after treatment with tested compounds for 24 the results are expressed as a percentage of dead cells with luminescence ToxiLight Assay. The results are expressed as a per cent of control with whole lysis cells. N.C. not countable […]
# Table S2. The viability of the cells SH-SY5Y after treatment with tested compounds for 24 h the results are expressed as a percentage of live cells with fluorescence PrestoBlue Assay. The results are expressed as a per cent of vehicle (DMSO). […]
# [3] = literature value; cited from earlier work
# α1β2γ2 GABA-A receptor = molecular target: T1, α1β2γ2 GABA-A receptor (Homo sapiens, UniProt P14867+P18507); assay: Electrophysiological studies (QPatch16X automated patch-clamp), PAM efficacy; assay type: cell-based
# T1 construct: expressed in transfected cells
# T1 sequence (P14867 28-456): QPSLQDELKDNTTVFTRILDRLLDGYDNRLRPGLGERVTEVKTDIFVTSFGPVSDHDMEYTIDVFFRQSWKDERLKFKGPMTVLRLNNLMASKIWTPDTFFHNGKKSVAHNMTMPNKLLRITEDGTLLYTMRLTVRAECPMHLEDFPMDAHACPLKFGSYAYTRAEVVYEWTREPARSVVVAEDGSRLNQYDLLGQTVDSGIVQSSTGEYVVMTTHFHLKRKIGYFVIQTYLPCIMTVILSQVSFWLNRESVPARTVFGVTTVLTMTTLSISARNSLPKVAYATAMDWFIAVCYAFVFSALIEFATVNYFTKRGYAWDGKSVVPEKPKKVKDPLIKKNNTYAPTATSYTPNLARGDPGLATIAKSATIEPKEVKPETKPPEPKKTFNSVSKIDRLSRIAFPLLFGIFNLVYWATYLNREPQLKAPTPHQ
# T1 sequence (P47870 25-512 partner limits assumed): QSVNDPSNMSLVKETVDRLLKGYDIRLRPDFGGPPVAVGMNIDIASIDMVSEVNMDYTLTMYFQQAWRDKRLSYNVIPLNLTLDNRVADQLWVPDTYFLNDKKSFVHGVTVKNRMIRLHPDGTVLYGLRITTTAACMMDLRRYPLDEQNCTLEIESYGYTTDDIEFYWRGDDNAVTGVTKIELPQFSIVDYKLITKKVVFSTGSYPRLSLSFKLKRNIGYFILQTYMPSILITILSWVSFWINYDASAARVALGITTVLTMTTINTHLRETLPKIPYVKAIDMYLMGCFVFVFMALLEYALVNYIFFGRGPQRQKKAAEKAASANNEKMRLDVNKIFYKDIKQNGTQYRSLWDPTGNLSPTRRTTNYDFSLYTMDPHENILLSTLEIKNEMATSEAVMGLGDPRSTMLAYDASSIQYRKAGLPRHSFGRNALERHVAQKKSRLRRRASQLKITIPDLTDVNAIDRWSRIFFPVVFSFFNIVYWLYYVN
# T1 sequence (P18507 40-475): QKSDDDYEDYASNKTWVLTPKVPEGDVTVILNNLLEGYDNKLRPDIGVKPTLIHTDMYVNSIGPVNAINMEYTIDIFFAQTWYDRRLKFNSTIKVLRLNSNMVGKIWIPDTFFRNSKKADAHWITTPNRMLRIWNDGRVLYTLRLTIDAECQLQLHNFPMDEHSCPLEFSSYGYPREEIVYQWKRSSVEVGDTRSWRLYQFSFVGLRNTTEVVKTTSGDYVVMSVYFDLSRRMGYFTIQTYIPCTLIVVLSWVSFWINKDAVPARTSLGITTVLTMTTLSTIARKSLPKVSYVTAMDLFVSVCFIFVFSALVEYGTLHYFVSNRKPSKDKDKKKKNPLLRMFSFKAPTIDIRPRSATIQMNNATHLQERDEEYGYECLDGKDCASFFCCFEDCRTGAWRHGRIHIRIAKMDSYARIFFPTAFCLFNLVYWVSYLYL
# [4] = Metabolic stability in human liver microsomes; assay type: in vitro ADME
# Procedure: In Eppendorf tubes, potassium phosphate buffer (pH 7.4), a working solution of the test compound, and human liver microsomes (final concentration: 0.4 mg/mL, Sigma-Aldrich) were combined. The mixture was incubated at 37 °C with shaking for 15 min in a thermoblock. Following this, an NADPH regeneration system (Sigma-Aldrich) was added to the mixture, which was subsequently incubated with shaking at 37 °C for various time intervals (5, 15, 30, 60, 90, 120, 150, 180, 210, and 240 min). A control experiment was run in parallel, replacing the regeneration fraction with phosphate buffer. At the designated incubation times, an internal standard (levallorphan, Sigma-Aldrich) was added to each sample. To terminate the reaction, 70% perchloric acid (Sigma-Aldrich) was added, and the samples were centrifuged at 6000 rpm for 10 min at 4 °C. The resulting supernatants were collected and subjected to LC-MS/MS analysis. Each sample was analyzed in duplicate.
# [5] = Metabolic stability in mouse liver microsomes; assay type: in vitro ADME
# [6] = Metabolic stability in rat liver microsomes; assay type: in vitro ADME
# MDR1-MDCKII cell line = assay: A–B and B–A permeability assay in MDR1-MDCKII cell line; settings: MDCK-MDR1 permeability assay
# Procedure: (§3) The A–B and B–A permeability assay using the MDR1-MDCKII cell line was conducted at Eurofins Discovery according to a well-established protocol.
# [7] = tested on: P-glycoprotein (P-gp, MDR1); assay: as above; settings: dog
# Procedure: as §3
# SH-SY5Y cells [8] = assay: ROS generation after hydrogen peroxide (CellROX); assay type: cell-based, human; settings: 50 μM pretreatment 1 h, then H2O2 300 μM 1 h
# Procedure: as §1
# The SH-SY5Y human neuroblastoma cell line was maintained according to established protocols. […]
# Cellular reactive oxygen species (ROS) levels were determined using the CellROX Deep Red Reagent (Thermo Fisher). […] The results were expressed as a percentage relative to the control (DMSO). Fluorescence intensity was measured using the ImageXpress Micro XLS system (Molecular Devices).
# SH-SY5Y cells [9] = assay: PrestoBlue cell viability assay; assay type: cell-based; settings: Table S2, 24 h
# Procedure: Cell viability was determined using the Presto Blue reagent (ThermoFisher) following the manufacturer’s instructions.
# as §2
# Table S1. The viability of the cells SH-SY5Y after treatment with tested compounds for 24 the results are expressed as a percentage of dead cells with luminescence ToxiLight Assay. The results are expressed as a per cent of control with whole […]
# percentage of live cells with fluorescence PrestoBlue Assay. The results are expressed as a per cent of vehicle (DMSO).
smiles,measurement,setting,value
"Cc1ccc(-c2nc3ccc(C)cn3c2CC(=O)N(C)C)cc1 [zolpidem, reference compound]",Ki,GABA-A receptor,37.8 ± 2.7 nM
same,Permeability Pe ± SD,PAMPA permeability assay,21.6 ± 1.26 ·10^–6 cm/s
same,Reduction of intracellular calcium levels,SH-SY5Y cells [1],47%
same,"X [%], percentage of dead cells, ToxiLight Assay (per cent of control with whole lysis cells)",SH-SY5Y cells [2]; 1E-04 M,71%
same,"X [%], percentage of dead cells, ToxiLight Assay (per cent of control with whole lysis cells)",SH-SY5Y cells [2]; 1E-05 M,92%
same,"X [%], percentage of dead cells, ToxiLight Assay (per cent of control with whole lysis cells)",SH-SY5Y cells [2]; 1E-06 M,98%
same,"X [%], percentage of dead cells, ToxiLight Assay (per cent of control with whole lysis cells)",SH-SY5Y cells [2]; 1E-07 M,100%
same,"X [%], percentage of dead cells, ToxiLight Assay (per cent of control with whole lysis cells)",SH-SY5Y cells [2]; 1E-08 M,101%
same,"X [%], percentage of dead cells, ToxiLight Assay (per cent of control with whole lysis cells)",SH-SY5Y cells [2]; 1E-09 M,100%
same,"X [%], percentage of dead cells, ToxiLight Assay (per cent of control with whole lysis cells)",SH-SY5Y cells [2]; 3E-05 M,90%
same,"X [%], percentage of dead cells, ToxiLight Assay (per cent of control with whole lysis cells)",SH-SY5Y cells [2]; 3E-06 M,96%
same,"plasma half-life (t0,5) in humans",[3],2–3 h and ≈ 2 h
"Cc1ccc2nc(-c3ccc(F)cc3)c(CC(=O)N3CC(C)NC(C)C3)n2c1 (stereo not shown) [Compound 6, 1-(3,5-Dimethylpiperazin-1-yl)-2-[2-(4-fluorophenyl)-6-methylimidazo[1,2-a]pyridin-3-yl]ethan-1-one]",EC50,α1β2γ2 GABA-A receptor,872 ± 77 nM
same,"t0,5 HLMs",[4],>60 min
same,remaining at 0.25 h,"[4]; human, liver microsomes, pH 7.4, after 15 min of biotransformation, read-out: % remaining of the parent compound HLMs",74%
same,microsomal CLint,"[4]; human, liver microsomes, pH 7.4, read-out: Clint HLMs",< 40 µL/min/mg
same,"t0,5 MLMs",[5],58 min
same,remaining at 0.25 h,"[5]; mouse, liver microsomes, pH 7.4, after 15 min of biotransformation, read-out: % remaining of the parent compound MLMs",68%
same,microsomal CLint,"[5]; mouse, liver microsomes, pH 7.4, read-out: Clint MLMs",< 40 µL/min/mg
same,"t0,5 RLMs",[6],44 min
same,remaining at 0.25 h,"[6]; rat, liver microsomes, pH 7.4, after 15 min of biotransformation, read-out: % remaining of the parent compound RLMs",70%
same,microsomal CLint,"[6]; rat, liver microsomes, pH 7.4, read-out: Clint RLMs",< 40 µL/min/mg
same,Substrate for P-glycoprotein (P-gp) efflux,MDR1-MDCKII cell line,possible substrate
same,Papp A→B at 10 μM,"[7]; MDCK-MDR1, pH 7.4",14.5 ×10⁻⁶ cm/s
same,Papp B→A at 10 μM,"[7]; MDCK-MDR1, pH 7.4",24.6 ×10⁻⁶ cm/s
same,efflux ratio at 10 μM,"[7]; MDCK-MDR1, pH 7.4, Efflux ratio (Paap B–A/A–B), pH 7.4/7.4, 6 and 17 at 10 μM",1.68
same,Reduction of intracellular calcium levels,SH-SY5Y cells [1],28%
same,Decrease of ROS levels,SH-SY5Y cells [8],32%
same,"X [%], percentage of dead cells, ToxiLight Assay (per cent of control with whole lysis cells)",SH-SY5Y cells [2]; 1E-04 M,74%
same,"X [%], percentage of dead cells, ToxiLight Assay (per cent of control with whole lysis cells)",SH-SY5Y cells [2]; 1E-05 M,93%
same,"X [%], percentage of dead cells, ToxiLight Assay (per cent of control with whole lysis cells)",SH-SY5Y cells [2]; 1E-06 M,109%
same,"X [%], percentage of dead cells, ToxiLight Assay (per cent of control with whole lysis cells)",SH-SY5Y cells [2]; 1E-07 M,97%
same,"X [%], percentage of dead cells, ToxiLight Assay (per cent of control with whole lysis cells)",SH-SY5Y cells [2]; 1E-08 M,108%
same,"X [%], percentage of dead cells, ToxiLight Assay (per cent of control with whole lysis cells)",SH-SY5Y cells [2]; 1E-09 M,101%
same,"X [%], percentage of dead cells, ToxiLight Assay (per cent of control with whole lysis cells)",SH-SY5Y cells [2]; 3E-05 M,87%
same,"X [%], percentage of dead cells, ToxiLight Assay (per cent of control with whole lysis cells)",SH-SY5Y cells [2]; 3E-06 M,105%
same,"X [%], percentage of live cells, PrestoBlue Assay (per cent of vehicle DMSO)",SH-SY5Y cells [9]; 1E-05 M,17%
same,"X [%], percentage of live cells, PrestoBlue Assay (per cent of vehicle DMSO)",SH-SY5Y cells [9]; 1E-06 M,16%
same,"X [%], percentage of live cells, PrestoBlue Assay (per cent of vehicle DMSO)",SH-SY5Y cells [9]; 1E-07 M,17%
same,"X [%], percentage of live cells, PrestoBlue Assay (per cent of vehicle DMSO)",SH-SY5Y cells [9]; 1E-08 M,18%
same,"X [%], percentage of live cells, PrestoBlue Assay (per cent of vehicle DMSO)",SH-SY5Y cells [9]; 1E-09 M,17%
same,"X [%], percentage of live cells, PrestoBlue Assay (per cent of vehicle DMSO)",SH-SY5Y cells [9]; 3E-05 M,17%
same,"X [%], percentage of live cells, PrestoBlue Assay (per cent of vehicle DMSO)",SH-SY5Y cells [9]; 3E-06 M,16%
